Converted amounts (≈) assume the structure as drawn.
Key:
[1] = target: T1, Ribosomal protein S6 kinase alpha-3 (Homo sapiens, UniProt P51812); assay: Inhibition of RSK2 (unknown origin) assessed as reduction in YB1 […] phosphorylation
[2] = target: T1, Ribosomal protein S6 kinase alpha-3; assay: Inhibition of RSK2 (unknown origin)
[3] = Solubility of the compound in PBS buffer of pH 7.0; type: physicochemical
[4] = target: Ribosomal protein S6 kinase beta-1 (Homo sapiens, UniProt P23443); assay: Inhibition of RPS6KB1 (unknown origin)
[5] = target: Tyrosine-protein kinase JAK1 (Homo sapiens, UniProt P23458); assay: Inhibition of JAK1 (unknown origin)
[6] = target: Vascular endothelial growth factor receptor 2 (Homo sapiens, UniProt P35968); assay: Inhibition of KDR (unknown origin)
[7] = target: Proto-oncogene tyrosine-protein kinase receptor Ret (Homo sapiens, UniProt P07949); assay: Inhibition of RET (unknown origin)
[8] = target: Fibroblast growth factor receptor 1 (Homo sapiens, UniProt P11362); assay: Inhibition of FGFR1 (unknown origin)
[9] = target: Fibroblast growth factor receptor 2 (Homo sapiens, UniProt P21802); assay: Inhibition of FGFR2 (unknown origin)
[10] = Efflux ratio of permeability of the compound in human Caco2 cells; type: ADME, cell-based; details: Caco-2
[11] = target: Tyrosine-protein kinase JAK2 (Homo sapiens, UniProt O60674); assay: Inhibition of JAK2 (unknown origin)
[12] = target: T2, Receptor-type tyrosine-protein kinase FLT3 (Homo sapiens, UniProt P36888); assay: Inhibition of FLT3 (unknown origin)
T2 sequence (P36888 whole entry): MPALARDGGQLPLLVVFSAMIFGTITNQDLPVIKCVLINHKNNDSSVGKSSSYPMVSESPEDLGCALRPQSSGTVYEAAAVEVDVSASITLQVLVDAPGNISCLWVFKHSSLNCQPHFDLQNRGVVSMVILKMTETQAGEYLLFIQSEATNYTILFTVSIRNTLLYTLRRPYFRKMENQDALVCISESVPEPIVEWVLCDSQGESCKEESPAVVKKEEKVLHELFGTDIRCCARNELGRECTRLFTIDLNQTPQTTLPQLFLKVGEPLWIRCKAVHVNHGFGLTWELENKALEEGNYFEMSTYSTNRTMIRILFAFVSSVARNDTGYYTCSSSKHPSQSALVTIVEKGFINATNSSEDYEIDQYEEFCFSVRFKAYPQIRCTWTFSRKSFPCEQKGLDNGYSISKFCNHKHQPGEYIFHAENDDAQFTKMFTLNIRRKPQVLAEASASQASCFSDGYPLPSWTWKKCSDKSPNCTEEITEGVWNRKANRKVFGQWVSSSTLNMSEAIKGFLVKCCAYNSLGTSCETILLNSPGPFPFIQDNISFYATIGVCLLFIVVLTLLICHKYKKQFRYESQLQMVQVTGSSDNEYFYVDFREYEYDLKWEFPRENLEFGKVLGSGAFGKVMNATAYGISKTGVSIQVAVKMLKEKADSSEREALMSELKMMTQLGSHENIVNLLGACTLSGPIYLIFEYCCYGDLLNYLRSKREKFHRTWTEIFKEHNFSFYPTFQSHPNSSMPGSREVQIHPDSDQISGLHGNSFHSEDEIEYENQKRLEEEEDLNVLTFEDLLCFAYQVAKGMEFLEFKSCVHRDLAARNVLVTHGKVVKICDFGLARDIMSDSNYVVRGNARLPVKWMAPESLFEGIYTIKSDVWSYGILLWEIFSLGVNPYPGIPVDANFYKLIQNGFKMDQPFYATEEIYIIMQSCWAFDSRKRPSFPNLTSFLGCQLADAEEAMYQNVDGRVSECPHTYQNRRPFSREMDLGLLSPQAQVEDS

[13] = target: T3, Tyrosine-protein kinase receptor UFO (Homo sapiens, UniProt P30530); assay: Inhibition of AXL (unknown origin)
T3 sequence (P30530 whole entry): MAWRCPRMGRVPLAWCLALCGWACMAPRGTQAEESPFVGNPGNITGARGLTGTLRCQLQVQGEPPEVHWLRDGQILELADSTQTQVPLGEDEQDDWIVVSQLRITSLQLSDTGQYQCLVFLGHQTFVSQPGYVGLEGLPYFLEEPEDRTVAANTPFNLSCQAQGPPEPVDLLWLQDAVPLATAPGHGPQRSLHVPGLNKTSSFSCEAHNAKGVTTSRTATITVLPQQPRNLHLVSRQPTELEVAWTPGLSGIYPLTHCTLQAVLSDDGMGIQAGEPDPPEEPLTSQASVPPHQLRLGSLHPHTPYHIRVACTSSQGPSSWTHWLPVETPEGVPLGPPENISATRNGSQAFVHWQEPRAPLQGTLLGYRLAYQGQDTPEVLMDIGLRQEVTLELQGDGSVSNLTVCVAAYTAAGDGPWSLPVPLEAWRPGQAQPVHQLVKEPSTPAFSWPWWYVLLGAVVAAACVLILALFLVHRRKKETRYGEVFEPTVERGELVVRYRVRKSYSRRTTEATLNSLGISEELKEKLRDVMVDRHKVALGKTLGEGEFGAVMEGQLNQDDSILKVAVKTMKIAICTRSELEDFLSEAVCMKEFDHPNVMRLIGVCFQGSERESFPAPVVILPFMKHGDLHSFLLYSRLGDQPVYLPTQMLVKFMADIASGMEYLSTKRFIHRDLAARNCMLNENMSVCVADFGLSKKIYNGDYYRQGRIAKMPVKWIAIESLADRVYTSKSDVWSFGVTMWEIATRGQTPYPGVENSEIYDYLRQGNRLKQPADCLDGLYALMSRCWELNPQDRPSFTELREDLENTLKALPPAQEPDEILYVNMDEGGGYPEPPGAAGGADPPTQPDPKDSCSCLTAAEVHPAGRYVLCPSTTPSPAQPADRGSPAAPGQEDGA

T1 sequence (P51812 whole entry): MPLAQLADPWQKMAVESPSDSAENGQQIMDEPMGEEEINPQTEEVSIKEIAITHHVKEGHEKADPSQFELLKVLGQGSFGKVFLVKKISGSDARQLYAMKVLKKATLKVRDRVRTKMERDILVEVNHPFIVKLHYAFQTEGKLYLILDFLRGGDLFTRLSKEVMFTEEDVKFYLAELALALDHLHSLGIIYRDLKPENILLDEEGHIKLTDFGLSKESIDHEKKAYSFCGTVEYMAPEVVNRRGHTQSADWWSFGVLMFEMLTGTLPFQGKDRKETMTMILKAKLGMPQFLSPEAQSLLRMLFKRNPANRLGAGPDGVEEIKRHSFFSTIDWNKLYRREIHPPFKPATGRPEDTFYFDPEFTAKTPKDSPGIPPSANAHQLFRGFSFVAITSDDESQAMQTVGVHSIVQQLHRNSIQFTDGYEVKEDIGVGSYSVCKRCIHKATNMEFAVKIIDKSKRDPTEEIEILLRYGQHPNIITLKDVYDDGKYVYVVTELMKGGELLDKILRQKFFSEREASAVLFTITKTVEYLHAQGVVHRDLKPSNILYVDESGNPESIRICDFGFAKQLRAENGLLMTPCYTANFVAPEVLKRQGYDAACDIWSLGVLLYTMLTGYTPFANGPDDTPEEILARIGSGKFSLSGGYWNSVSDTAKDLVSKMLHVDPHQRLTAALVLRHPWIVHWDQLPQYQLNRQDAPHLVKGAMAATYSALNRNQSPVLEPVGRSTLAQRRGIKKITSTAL
Proto-oncogene tyrosine-protein kinase receptor Ret, sequence (P07949 whole entry): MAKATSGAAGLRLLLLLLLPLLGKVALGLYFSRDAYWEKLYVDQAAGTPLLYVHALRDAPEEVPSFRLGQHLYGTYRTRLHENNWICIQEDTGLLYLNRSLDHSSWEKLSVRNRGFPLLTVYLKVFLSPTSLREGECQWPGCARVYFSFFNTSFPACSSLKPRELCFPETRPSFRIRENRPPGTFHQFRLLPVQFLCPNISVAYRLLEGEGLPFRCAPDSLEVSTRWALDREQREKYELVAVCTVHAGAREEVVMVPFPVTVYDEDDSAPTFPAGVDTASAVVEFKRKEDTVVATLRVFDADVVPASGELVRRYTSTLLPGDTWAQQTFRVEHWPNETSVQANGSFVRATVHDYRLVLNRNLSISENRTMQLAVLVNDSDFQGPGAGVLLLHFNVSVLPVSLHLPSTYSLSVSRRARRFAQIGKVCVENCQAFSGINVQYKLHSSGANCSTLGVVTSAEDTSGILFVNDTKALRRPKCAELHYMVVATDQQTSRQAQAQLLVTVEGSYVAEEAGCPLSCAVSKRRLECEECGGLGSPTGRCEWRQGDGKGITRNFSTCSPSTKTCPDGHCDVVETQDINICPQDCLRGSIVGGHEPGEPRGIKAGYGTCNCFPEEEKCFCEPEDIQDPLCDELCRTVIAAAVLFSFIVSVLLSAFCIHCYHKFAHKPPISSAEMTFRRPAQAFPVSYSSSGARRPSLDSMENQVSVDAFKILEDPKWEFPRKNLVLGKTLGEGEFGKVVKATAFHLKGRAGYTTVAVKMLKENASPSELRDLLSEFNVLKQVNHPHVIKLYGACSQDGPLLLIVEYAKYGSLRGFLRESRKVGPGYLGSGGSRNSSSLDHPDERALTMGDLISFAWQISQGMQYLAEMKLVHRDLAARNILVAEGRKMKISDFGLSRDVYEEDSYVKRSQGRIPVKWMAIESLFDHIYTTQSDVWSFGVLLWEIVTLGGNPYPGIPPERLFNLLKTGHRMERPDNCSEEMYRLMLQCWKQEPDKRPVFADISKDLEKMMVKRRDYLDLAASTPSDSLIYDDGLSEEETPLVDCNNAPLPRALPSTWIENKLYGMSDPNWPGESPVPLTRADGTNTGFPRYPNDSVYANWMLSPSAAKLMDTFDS
Vascular endothelial growth factor receptor 2, sequence (P35968 whole entry): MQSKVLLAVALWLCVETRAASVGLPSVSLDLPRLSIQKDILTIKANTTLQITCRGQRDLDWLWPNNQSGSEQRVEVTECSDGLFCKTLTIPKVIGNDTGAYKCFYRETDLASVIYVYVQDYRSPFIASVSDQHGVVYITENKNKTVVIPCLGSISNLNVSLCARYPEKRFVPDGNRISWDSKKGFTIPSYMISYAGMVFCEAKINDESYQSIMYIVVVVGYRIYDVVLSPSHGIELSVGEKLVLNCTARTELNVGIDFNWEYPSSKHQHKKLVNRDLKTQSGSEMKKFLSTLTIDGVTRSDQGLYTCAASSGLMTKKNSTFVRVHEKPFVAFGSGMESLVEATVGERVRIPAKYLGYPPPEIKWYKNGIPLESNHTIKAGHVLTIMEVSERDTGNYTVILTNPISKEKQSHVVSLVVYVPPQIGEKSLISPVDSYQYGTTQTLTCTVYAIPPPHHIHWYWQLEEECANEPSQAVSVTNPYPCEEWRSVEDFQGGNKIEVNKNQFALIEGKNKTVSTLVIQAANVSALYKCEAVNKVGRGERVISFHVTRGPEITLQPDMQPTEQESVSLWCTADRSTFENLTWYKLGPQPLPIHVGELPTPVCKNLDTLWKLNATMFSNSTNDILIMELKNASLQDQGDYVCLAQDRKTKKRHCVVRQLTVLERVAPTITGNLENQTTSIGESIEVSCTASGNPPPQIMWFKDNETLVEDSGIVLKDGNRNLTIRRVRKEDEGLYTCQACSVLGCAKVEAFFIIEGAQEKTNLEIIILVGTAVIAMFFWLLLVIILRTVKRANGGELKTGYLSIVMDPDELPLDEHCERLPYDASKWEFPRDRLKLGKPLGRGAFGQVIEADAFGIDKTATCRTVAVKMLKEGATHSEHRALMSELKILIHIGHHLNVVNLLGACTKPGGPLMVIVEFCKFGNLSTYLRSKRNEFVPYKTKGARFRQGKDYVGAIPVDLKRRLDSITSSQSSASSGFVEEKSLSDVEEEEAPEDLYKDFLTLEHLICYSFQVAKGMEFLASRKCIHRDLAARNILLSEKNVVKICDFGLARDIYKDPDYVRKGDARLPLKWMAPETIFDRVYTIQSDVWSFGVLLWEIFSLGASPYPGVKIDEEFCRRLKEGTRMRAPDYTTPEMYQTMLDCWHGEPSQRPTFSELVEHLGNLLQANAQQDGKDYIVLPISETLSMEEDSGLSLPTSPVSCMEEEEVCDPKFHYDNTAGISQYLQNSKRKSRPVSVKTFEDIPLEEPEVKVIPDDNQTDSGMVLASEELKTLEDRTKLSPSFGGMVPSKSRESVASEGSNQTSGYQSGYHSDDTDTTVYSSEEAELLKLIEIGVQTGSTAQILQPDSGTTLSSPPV
Tyrosine-protein kinase JAK1, sequence (P23458 whole entry): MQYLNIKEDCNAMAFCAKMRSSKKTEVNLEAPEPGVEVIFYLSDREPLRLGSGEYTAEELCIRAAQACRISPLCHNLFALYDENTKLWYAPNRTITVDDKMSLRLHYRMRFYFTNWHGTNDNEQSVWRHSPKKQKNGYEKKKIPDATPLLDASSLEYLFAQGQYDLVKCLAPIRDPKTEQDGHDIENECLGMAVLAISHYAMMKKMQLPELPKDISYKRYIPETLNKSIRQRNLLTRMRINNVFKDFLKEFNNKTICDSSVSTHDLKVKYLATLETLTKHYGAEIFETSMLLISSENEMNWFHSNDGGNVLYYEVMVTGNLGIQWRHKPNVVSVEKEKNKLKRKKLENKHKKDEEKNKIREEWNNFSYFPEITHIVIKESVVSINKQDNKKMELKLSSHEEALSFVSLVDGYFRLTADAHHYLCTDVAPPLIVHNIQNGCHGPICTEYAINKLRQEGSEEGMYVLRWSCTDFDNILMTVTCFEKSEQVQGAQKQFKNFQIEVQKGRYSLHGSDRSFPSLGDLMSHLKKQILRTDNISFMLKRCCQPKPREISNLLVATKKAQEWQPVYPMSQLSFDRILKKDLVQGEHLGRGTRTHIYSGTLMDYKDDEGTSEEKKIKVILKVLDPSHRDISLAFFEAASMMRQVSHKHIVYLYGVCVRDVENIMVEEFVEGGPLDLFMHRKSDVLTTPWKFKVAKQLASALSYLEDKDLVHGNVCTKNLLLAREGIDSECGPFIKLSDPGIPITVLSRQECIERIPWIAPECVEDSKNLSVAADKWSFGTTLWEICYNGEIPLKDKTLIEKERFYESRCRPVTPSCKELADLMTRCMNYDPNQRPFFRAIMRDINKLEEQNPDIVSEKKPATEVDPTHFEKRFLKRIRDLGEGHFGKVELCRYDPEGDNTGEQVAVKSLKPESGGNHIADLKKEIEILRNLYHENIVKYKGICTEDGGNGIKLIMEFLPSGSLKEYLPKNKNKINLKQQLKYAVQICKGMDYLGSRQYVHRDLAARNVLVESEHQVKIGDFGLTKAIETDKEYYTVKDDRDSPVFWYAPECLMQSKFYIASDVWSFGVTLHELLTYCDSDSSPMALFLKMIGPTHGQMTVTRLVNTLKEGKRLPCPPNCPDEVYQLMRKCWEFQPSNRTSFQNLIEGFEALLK
Ribosomal protein S6 kinase beta-1, sequence (P23443 whole entry): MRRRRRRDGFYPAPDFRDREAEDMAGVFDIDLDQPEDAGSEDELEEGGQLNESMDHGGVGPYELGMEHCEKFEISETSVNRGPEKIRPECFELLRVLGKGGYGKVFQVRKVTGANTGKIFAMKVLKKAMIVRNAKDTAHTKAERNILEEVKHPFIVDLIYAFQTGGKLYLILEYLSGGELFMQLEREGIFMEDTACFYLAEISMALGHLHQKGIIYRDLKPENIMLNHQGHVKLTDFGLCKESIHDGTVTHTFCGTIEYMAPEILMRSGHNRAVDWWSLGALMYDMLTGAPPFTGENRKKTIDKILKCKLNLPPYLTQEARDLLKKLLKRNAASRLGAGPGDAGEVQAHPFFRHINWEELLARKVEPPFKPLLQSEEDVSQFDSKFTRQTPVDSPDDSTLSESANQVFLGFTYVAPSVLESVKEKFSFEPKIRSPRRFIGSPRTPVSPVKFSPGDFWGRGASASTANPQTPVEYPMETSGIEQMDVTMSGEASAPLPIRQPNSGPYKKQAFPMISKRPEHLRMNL

In the case of Oc1ccc(-c2cn[nH]c2-c2ccc(O)cc2)cc1, the IC50 [1] is reported as 2800 nM and the IC50 [2] is reported as 20 nM.
CN1CCN(c2ccc(-c3ccncc3-c3cc(F)c(O)c(F)c3)cc2)CC1 gave an IC50 [1] of 340 nM.
In the case of Oc1c(F)cc(-c2cnccc2-c2ccc(N3CCOCC3)cc2)cc1F, the IC50 [1] is reported as 210 nM.
For COc1c(F)cc(-c2cnc3[nH]ccc3c2-c2ccc(N3CCN(C)CC3)cc2)cc1F, the IC50 [1] was over 20000 nM and the IC50 [2] was 500 nM.
CN1CCN(c2ccc(-c3c(-c4ccc(C(F)F)cc4)cnc4[nH]ccc34)cc2)CC1 gave an IC50 [1] of 18100 nM and an IC50 [2] of 800 nM.
With Oc1c(F)cc(-c2cnc3[nH]ccc3c2-c2ccc(N3CCOCC3)cc2)cc1F the IC50 [1] was 50 nM, the IC50 [2] was 2 nM and the solubility [3] was under 0.22 µg/mL.
CN1CCN(c2ccc(-c3c(-c4cn[nH]c4)cnc4[nH]ccc34)cc2)CC1 showed an IC50 [1] of 2400 nM and an IC50 [2] of 240 nM.
For CN1CCN(c2ccc(-c3c(-c4cc(F)cc(F)c4)cnc4[nH]ccc34)cc2)CC1, the IC50 [1] was 6000 nM and the IC50 [2] was 38 nM.
In the case of CN1CCN(c2ccc(-c3c(-c4ccc(F)cc4)cnc4[nH]ccc34)cc2)CC1, the IC50 [1] is reported as over 20000 nM and the IC50 [2] is reported as 1900 nM.
For CN1CCN(c2ccc(-c3c(-c4ccnc(F)c4)cnc4[nH]ccc34)cc2)CC1, the IC50 [1] was over 20000 nM and the IC50 [2] was 1100 nM.
CN1CCN(c2ccc(-c3c(-c4ccc(N)nc4)cnc4[nH]ccc34)cc2)CC1 showed an IC50 [1] of 7200 nM and an IC50 [2] of 810 nM.
For Cc1ccc(-c2c(-c3cc(F)c(O)c(F)c3)cnc3[nH]ccc23)cc1, the IC50 [1] was 232 nM and the IC50 [2] was 2 nM.
CN1CCN(c2ccc(-c3c(-c4cc(F)c(O)c(F)c4)cnc4[nH]ccc34)cc2)CC1 gave an IC50 [4] of 120 nM, an IC50 [5] of under 1000 nM and an IC50 [6] of under 1000 nM. For the same compound, the IC50 [7] was under 1000 nM, the IC50 [8] was under 1000 nM and the IC50 [9] was under 1000 nM. It also gave an efflux ratio [10] of 0.8, an IC50 [1] of 54 nM and an IC50 [2] of 0.3 nM. It also gave a solubility [3] of 10.3 µg/mL (≈ 24.5 µM), an IC50 [11] of under 1000 nM and an IC50 [12] of 120 nM. It also gave an IC50 [13] of under 1000 nM.
